System: human plasma stability, LC-MS/MS, 48 h
Experiment: qHTS Assay to Find Inhibitors of T. brucei phosphofructokinase: Human Plasma Stability Profiling
Conditions: at 2 µM; stronger effect = lower value

percent remaining in plasma (higher = more stable): 100%
SMILES: O=C(Cc1ccc(Cl)c(Cl)c1)Nc1ccc(S(=O)(=O)Nc2ccon2)cc1
